According to patent US20090209536A1, “AMINOQUINAZOLINE CANNABINOID RECEPTOR MODULATORS FOR TREATMENT OF DISEASE” (KALYPSYS, INC., priority 2007, published 2009):
Like-named read-outs stand apart in the source and are kept apart here.

Columns and labels:
[1] = target: T1, human cannabinoid receptor type 2 (Homo sapiens, UniProt P34972); experiment: Human CB2 Radioligand Binding Assay; details: membranes from stably transfected CHO CB2 cells
T1 construct: expressed in transfected cells; membrane preparation
T1 sequence (P34972 whole entry): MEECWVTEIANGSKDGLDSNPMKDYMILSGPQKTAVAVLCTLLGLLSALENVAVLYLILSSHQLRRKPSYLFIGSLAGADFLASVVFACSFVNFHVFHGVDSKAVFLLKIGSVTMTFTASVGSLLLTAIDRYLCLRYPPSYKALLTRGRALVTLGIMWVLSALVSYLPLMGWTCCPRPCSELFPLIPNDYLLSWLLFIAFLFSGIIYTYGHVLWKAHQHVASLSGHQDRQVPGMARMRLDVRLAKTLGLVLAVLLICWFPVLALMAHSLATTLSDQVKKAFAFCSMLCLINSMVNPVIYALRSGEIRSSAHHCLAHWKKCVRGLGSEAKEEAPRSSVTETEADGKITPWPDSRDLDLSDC
Method in brief: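 Filtration competition binding on membranes from CHO cells stably expressing human CB2, with [3H]CP-55,940 at its lot-specific Kd, in 50 mM Tris-HCl pH 7.4, EGTA, MgCl2, 5 mg/ml BSA, 1% DMSO; 90 min at 30° C. Compounds at 10 uM single point or dose-response; bound radioactivity by scintillation, 100 nM CP-55,940 as 100% efficacy.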

[2] = target: T2, human cannabinoid receptor type 1 (Homo sapiens, UniProt P21554); experiment: Human CB1 Radioligand Binding Assay (basis of selectivity, CB2 vs. CB1); details: CB1: HEK 293 EBNA cells expressing human CB1; CB2: CHO CB2 membranes
T2 construct: purchased Perkin Elmer RBHCB1M; host or cells: HEK 293 EBNA cells
T2 sequence (P21554 whole entry): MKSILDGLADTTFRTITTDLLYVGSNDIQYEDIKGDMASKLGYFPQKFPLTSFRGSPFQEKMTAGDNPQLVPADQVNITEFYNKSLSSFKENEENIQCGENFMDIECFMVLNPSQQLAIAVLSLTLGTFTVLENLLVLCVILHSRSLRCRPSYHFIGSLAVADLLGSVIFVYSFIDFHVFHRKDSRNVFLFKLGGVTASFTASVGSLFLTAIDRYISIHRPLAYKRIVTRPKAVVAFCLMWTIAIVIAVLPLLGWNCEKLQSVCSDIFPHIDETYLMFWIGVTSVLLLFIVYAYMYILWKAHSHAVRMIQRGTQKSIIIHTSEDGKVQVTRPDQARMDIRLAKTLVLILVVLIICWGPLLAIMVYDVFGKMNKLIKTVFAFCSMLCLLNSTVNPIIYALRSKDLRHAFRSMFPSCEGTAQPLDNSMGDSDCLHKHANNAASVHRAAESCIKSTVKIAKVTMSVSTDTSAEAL
Description: 2. Human CB1 Radioligand Binding Assay
The incubation buffer was composed of 50 mM Tris-HCl pH 7.4, 2.5 mM EDTA, 5 mM MgCl2, 5.0 mg/ml fatty acid free BSA and the wash buffer was composed of 50 mM Tris-HCl pH 7.4, 2.5 mM EDTA, 5 mM MgCl2, 0.5 mg/ml fatty acid free BSA.

[3] = CB2 Ligand Binding Asssay EC50, competition with [3H] CP-55,940
[4] = competition with [3H] CP-55,940, read-out: CB2 Ligand Binding Asssay EC50

Selectivity, CB2 vs. CB1 [2]	EC50 [1, 4] [nM]	SMILES	EC50 [1, 3] [nM]
− (− indicates ≦ 10−fold)	> 1000	Cn1ccnc1N1CCN(c2nc(-c3ccccc3Cl)nc3ccccc23)CC1 [Example 257, 2-(2-Chlorophenyl)-4-(4-(1-methyl-1H-imidazol-2-yl)piperazin-1-yl)quinazoline]	–
− (− indicates ≦ 10−fold)	> 1000	CC(C)c1nc(N2CCN(C)CC2)c2ccccc2n1 [Example 148, 2-Isopropyl-4-(4-methylpiperazin-1-yl)quinazoline]	–
+ (+ indicates > 10−fold)	< 1000	CC(=O)N1CCN(c2nc(-c3ccccc3Cl)nc3cccc(F)c23)CC1 [Example 246, 1-(4-(2-(2-Chlorophenyl)-5-fluoroquinazolin-4-yl)piperazin-1-yl)ethanone]	–
− (− indicates ≦ 10−fold)	< 1000	Fc1ccc(-c2nc(N3CCCC3)c3ccccc3n2)c(F)c1 [Example 22, 2-(2,4-Difluorophenyl)-4-(pyrrolidin-1-yl)quinazoline]	–
− (− indicates ≦ 10−fold)	> 1000	CCOC(=O)N1CCN(c2nc(-c3ccccc3Cl)nc3ccc(Cl)cc23)CC1 [Example 206, Ethyl 4-(6-chloro-2-(2-chlorophenyl)quinazolin-4-yl)piperazine-1-carboxylate]	–
+ (+ indicates > 10−fold)	< 1000	CCOC(=O)N1CCN(c2nc(-c3ccccc3Cl)nc3cccc(F)c23)CC1 [Example 247, Ethyl 4-(2-(2-chlorophenyl)-5-fluoroquinazolin-4-yl)piperazine-1-carboxylate]	–
− (− indicates ≦ 10−fold)	> 1000	CCOC(=O)N1CCN(c2nc(-c3ccc(C(C)(C)C)cc3)nc3ccc(Cl)cc23)CC1 [Example 252, Ethyl 4-(2-(4-tert-butylphenyl)-6-chloroquinazolin-4-yl)piperazine-1-carboxylate]	–
− (− indicates ≦ 10−fold)	> 1000	CN(c1ccc(C(C)(C)C)cc1)c1nc(-c2ccc(OC(F)(F)F)cc2)nc2ccccc12 [Example 144, (4-tert-Butylphenyl)methyl-[2-(4-trifluoromethoxyphenyl)quinazolin-4-yl]amine]	–
− (− indicates ≦ 10−fold)	< 1000	CN(c1nc(-c2ccc(C(C)(C)C)cc2)nc2ccccc12)C1CCCCC1 [Example 131, 2-(4-tert-Butylphenyl)quinazolin-4-yl cyclohexylmethylamine]	–
− (− indicates ≦ 10−fold)	< 1000	COc1ccc(CNC(=O)c2ccc3nc(-c4ccccc4Cl)nc(N4CCC(C)CC4)c3c2)cc1 [Example 313, 2-(2-Chlorophenyl)-N-(4-methoxybenzyl)-4-(4-methylpiperidin-1-yl)quinazoline-6-carboxamide]	–
+ (+ indicates > 10−fold)	< 1000	CN1CCN(c2nc(-c3ccc(F)c(F)c3)nc3ccccc23)CC1 [Example 18, 2-(3,4-Difluorophenyl)-4-(4-methylpiperazin-1-yl)quinazoline]	–
− (− indicates ≦ 10−fold)	< 1000	FC(F)(F)Oc1ccc(-c2nc(N3CCCC3)c3ccccc3n2)cc1 [Example 139, 4-Pyrrolidin-1-yl-2-(4-trifluoromethoxyphenyl)quinazoline]	–
+ (+ indicates > 10−fold)	< 1000	COc1ccc2nc(-c3ccccc3Cl)nc(N3CCCC3)c2c1 [Example 179, 2-(2-Chlorophenyl)-6-methoxy-4-(pyrrolidin-1-yl)quinazoline]	–
+ (+ indicates > 10−fold)	< 1000	CCOC(=O)N1CCN(c2nc(-c3ccccc3Cl)nc3cccc(OC)c23)CC1 [Example 244, Ethyl 4-(2-(2-chlorophenyl)-5-methoxyquinazolin-4-yl)piperazine-1-carboxylate]	–
− (− indicates ≦ 10−fold)	< 1000	OC1(c2ccc(Cl)cc2)CCN(c2nc(-c3ccccc3Cl)nc3ccccc23)CC1 [Example 66, 4-(4-Chlorophenyl)-1-[2-(2-chlorophenyl)quinazolin-4-yl]piperidin-4-ol]	–
− (− indicates ≦ 10−fold)	> 1000	COc1cc2nc(Oc3ccc(C(C)(C)C)cc3)nc(N3CCCC3)c2cc1OC [Example 296, 2-(4-tert-Butylphenoxy)-6,7-dimethoxy-4-(pyrrolidin-1-yl)quinazoline]	–

Selectivity, CB2 vs. CB1 [2]	EC50 [1, 4] [nM]	SMILES	EC50 [1, 3] [nM]
+ (+ indicates > 10−fold)	> 1000	CCOC(=O)N1CCN(c2nc(-c3ccccc3F)nc3ccc(OC)cc23)CC1 [Example 275, Ethyl 4-(2-(2-fluorophenyl)-6-methoxyquinazolin-4-yl)piperazine-1-carboxylate]	–
+ (+ indicates > 10−fold)	< 1000	O=C(C1CC1)N1CCN(c2nc(-c3ccccc3Cl)nc3ccccc23)CC1 [Example 97, (4-(2-(2-Chlorophenyl)quinazolin-4-yl)piperazin-1-yl)(cyclopropyl)methanone]	–
+ (+ indicates > 10−fold)	< 1000	CCCC(=O)N1CCN(c2nc(-c3ccccc3Cl)nc3ccccc23)CC1 [Example 95, 1-(4-(2-(2-Chlorophenyl)quinazolin-4-yl)piperazin-1-yl)butan-1-one]	–
+ (+ indicates > 10−fold)	< 1000	CC(C)(C)c1ccc2c(N3CCCC3)nc(Nc3ccccc3)nc2c1 [Example 287, 7-tert-Butyl-N-phenyl-4-(pyrrolidin-1-yl)quinazolin-2-amine]	–
+ (+ indicates > 10−fold)	< 1000	CC(=O)N1CCN(c2nc(-c3ccccc3Cl)nc3ccccc23)CC1 [Example 99, 1-(4-(2-(2-Chlorophenyl)quinazolin-4-yl)piperazin-1-yl)ethanone]	–
− (− indicates ≦ 10−fold)	> 1000	CCOC(=O)N1CCN(c2nc(C3CCCCC3)nc3ccc(OC)cc23)CC1 [Example 218, Ethyl 4-(2-cyclohexyl-6-methoxyquinazolin-4-yl)piperazine-1-carboxylate]	–
− (− indicates ≦ 10−fold)	< 1000	CN1CCN(c2nc(-c3ccccc3Cl)nc3ccc(OC(F)(F)F)cc23)CC1 [Example 180, 2-(2-Chlorophenyl)-4-(4-methylpiperazin-1-yl)-6-(trifluoromethoxy) quinazoline]	–
− (− indicates ≦ 10−fold)	> 1000	CN(Cc1ccccc1)c1nc(-c2ccc(C(C)(C)C)cc2)nc2ccccc12 [Example 113, N-Benzyl-2-(4-tert-butylphenyl)-N-methylquinazolin-4-amine]	–
− (− indicates ≦ 10−fold)	> 1000	CN(c1ccc(C(C)(C)C)cc1)c1nc(-c2ccccc2Cl)nc2ccccc12 [Example 81, (4-tert-Butylphenyl)-[2-(2-chlorophenyl)quinazolin-4-yl]methylamine]	–
− (− indicates ≦ 10−fold)	< 1000	CC(C)Nc1nc(CNS(=O)(=O)c2cccc3ccccc23)nc2ccccc12 [Example 304, N-((4-(Isopropylamino)quinazolin-2-yl)methyl)naphthalene-1-sulfonamide]	–
− (− indicates ≦ 10−fold)	> 1000	CCOC(=O)N1CCN(c2nc(-c3ccc(Cl)cc3Cl)nc3ccccc23)CC1 [Example 203, Ethyl 4-(2-(2,4-dichlorophenyl)quinazolin-4-yl)piperazine-1-carboxylate]	–
+ (+ indicates > 10−fold)	< 1000	CCOC(=O)N1CCN(c2nc(-c3ccccc3F)nc3cccc(F)c23)CC1 [Example 281, Ethyl 4-(5-fluoro-2-(2-fluorophenyl)quinazolin-4-yl)piperazine-1-carboxylate]	–
− (− indicates ≦ 10−fold)	> 1000	O=C(NCc1nc(N2CCCC2)c2ccccc2n1)c1ccc(Cl)cc1 [Example 12, 4-Chloro-N-((4-(pyrrolidin-1-yl)quinazolin-2-yl)methyl)benzamide]	–
− (− indicates ≦ 10−fold)	> 1000	CN1CCN(c2nc(-c3ccccc3Cl)nc3c(Cl)cccc23)CC1 [Example 228, 8-Chloro-2-(2-chlorophenyl)-4-(4-methylpiperazin-1-yl)quinazoline]	–
+ (+ indicates > 10−fold)	< 1000	CC(=O)N1CCN(c2nc(-c3ccccc3F)nc3cccc(Cl)c23)CC1 [Example 237, 1-(4-(5-Chloro-2-(2-fluorophenyl)quinazolin-4-yl)piperazin-1-yl)ethanone]	–

SMILES	Selectivity, CB2 vs. CB1 [2]	EC50 [1, 4] [nM]	EC50 [1, 3] [nM]
CCCNC(=O)N1CCN(c2nc(-c3ccccc3Cl)nc3ccccc23)CC1 [Example 91, 4-(2-(2-Chlorophenyl)quinazolin-4-yl)-N-propylpiperazine-1-carboxamide]	− (− indicates ≦ 10−fold)	–	> 1000
CC(C)c1nc(N2CCOCC2)c2ccccc2n1 [Example 147, 2-Isopropyl-4-morpholin-4-ylquinazoline]	− (− indicates ≦ 10−fold)	–	> 1000
CCN(CC)C(=O)c1ccc2nc(-c3ccccc3Cl)nc(N3CCOCC3)c2c1 [Example 315, 2-(2-Chlorophenyl)-N,N-diethyl-4-morpholinoquinazoline-6-carboxamide]	− (− indicates ≦ 10−fold)	–	> 1000
